Results published in EP1743628A1, “Cosmetic composition containing red algae extract comprising a combination of floridoside and isethionic acid” (Simer, priority 2005, dated 2007).

Experiments:
[1] = system: transglutaminase kératinocytaire (TGk); assay: Keratinocyte transglutaminase (TGk) activity in NHEK cultures (differentiation)
[2] = system: stratum corneum (SC) délipidisé; assay: Water retention (water-holding capacity, WHC) of delipidised stratum corneum after immersion in aqueous test solutions; design: species or system porc; settings: 8 h immersion, après 6 heures à 25°C et 40% RH
Description: On étudie l'hydratation du stratum corneum (SC) délipidisé et traité par différentes solutions aqueuses.
Le but de cette étude est de montrer si l'application cutanée d'une solution aqueuse d'extrait de mastocarpus (10% de matière sèche), de floridoside pur à 3,8%, d'acide iséthionique pur à 1,9%, d'un mélange de floridoside pur à 3,8% et d'acide iséthionique pur à 1,9%, modifie significativement l'état d'hydratation du SC délipidisé puis conservé dans une enceinte à 25°C et à 40 % d'humidité relative (RH).
Dans cette étude, des échantillons de SC, isolés de l'épiderme de morceaux d'oreilles de porc par un traitement à la trypsine (1% dans un tampon phosphate; pH=7,4) puis délipidisés par un solvant (acétone par exemple), ont été immergés pendant 8 heures dans une solution aqueuse d'extrait de mastocarpus 10%, de floridoside pur à 3,8%, d'acide iséthionique pur à 1,9%, d'un mélange de floridoside pur à 3,8% et d'acide iséthionique pur à 1,9%, (3 échantillons de SC par produits). Trois échantillons de SC délipidisé ont été traités par de l'eau ultra pure (contrôle, 18 MΩ), pendant 8 heures. Après traitement, ces échantillons ont été pesés puis placés dans une étuve maintenue à 25°C et à 40% RH. La masse des échantillons de SC traités par chacune des solutions a été déterminée après 1h; 2h; 3h; 4h; 5h et 6h de conservation à 25°C et à 40% RH. […]

[3] = system: fibres musculaires en coculture avec des explants de moelle épinière; type: cell-based, cellules musculaires humaines; embryons de rat Wistar
[4] = acide rétinoïque, concentration not printed in this table (10^-7M per Tableau 4)

For `CC1=C(/C=C/C(C)=C/C=C/C(C)=C/C(=O)O)C(C)(C)CCC1` [Acide rétinoïque], the “% témoin (activité TGk)” value ([1]; 10^-7M) was 52%, the “Activité TGk (cpm)” value ([1]; 10^-7M) was 447 cpm and the “réduction de l'activité TGk” value ([1]; 10^-7M) was 46%. For the same compound, the “% (activité TGk/µg de protéines, par rapport au témoin)” value [1, 4] was 67% and the “activité/µg (activité TGk par rapport à la quantité de protéines)” value (“activité/µg” for short) [1, 4] was 131.
With `[Ca+2].[Cl-].[Cl-]` [Chlorure de calcium] the “% (activité TGk/µg de protéines, par rapport au témoin)” value ([1]; 1,5 mM) was 317%, the “% témoin (activité TGk)” value ([1]; 1,5 mM) was 394% and the “activité/µg” value ([1]; 1,5 mM) was 626. The “Activité TGk (cpm)” value ([1]; 1,5mM, sans calcium dans le milieu) was 3408 cpm and the “activité transglutaminase plus forte en milieu calcium qu'en milieu sans calcium” value ([1]; chlorure de calcium 1,5 mM) was ~4 fois.
With `CC1=C(/C=C/C(C)=C/C=C/C(C)=C/CO)C(C)(C)CCC1` [Rétinol] the “% (activité TGk/µg de protéines, par rapport au témoin)” value ([1]; 10^-6 M) was 72%, the “% témoin (activité TGk)” value ([1]; 10^-6 M) was 54% and the “Activité TGk (cpm)” value ([1]; 10^-6 M) was 465 cpm. The “activité/µg” value ([1]; 10^-6 M) was 142 and the “réduction de l'activité TGk” value ([1]; 10^-6 M) was 48%.
For `O=S(=O)(O)CCO` [acide iséthionique], the “état de déshydratation des échantillons de SC” value ([2]; acide iséthionique 1,9%, vs contrôle) was “moins déshydratés que les échantillons contrôles”.
With `CCCC(C)(COC(N)=O)COC(=O)NC(C)C` (centres unmarked) [carisoprodol] the “fréquence de contraction des 3 fibres musculaires sélectionnées” value ([3]; 10^-3 M (0,03%), après 1 minute et 2 heures d'incubation) was “a bloqué”, the “activité contractile après recharge en glucose” value ([3]; 10^-3 M, 48 heures d'incubation, apport de glucose) was “n'a pas permis aux fibres musculaires de reprendre une activité contractile” and the “pourcentage moyen de contraction des trois fibres (récupération)” value ([3]; carisoprodol 10^-3 M, après changement de milieu et 2 heures sans produit, relative to initial frequency) was 111%.
In the case of `OCC(CO)O[C@H]1O[C@H](CO)[C@H](O)[C@H](O)[C@H]1O` [floridoside, 2-O-glycérol-α-D-galactopyranoside], the “état de déshydratation des échantillons de SC” value ([2]; floridoside 3,8%, vs eau) is reported as “n'était pas significativement différent”.
